The source of these data is BindingDB's records for doi:10.1038/nchembio.137 (University of Texas Southwestern Medical Center, 2009).

The target of the experiment is T1, Protein Wnt-2 (Mus musculus, UniProt P21552).
T1 sequence (P21552 whole entry): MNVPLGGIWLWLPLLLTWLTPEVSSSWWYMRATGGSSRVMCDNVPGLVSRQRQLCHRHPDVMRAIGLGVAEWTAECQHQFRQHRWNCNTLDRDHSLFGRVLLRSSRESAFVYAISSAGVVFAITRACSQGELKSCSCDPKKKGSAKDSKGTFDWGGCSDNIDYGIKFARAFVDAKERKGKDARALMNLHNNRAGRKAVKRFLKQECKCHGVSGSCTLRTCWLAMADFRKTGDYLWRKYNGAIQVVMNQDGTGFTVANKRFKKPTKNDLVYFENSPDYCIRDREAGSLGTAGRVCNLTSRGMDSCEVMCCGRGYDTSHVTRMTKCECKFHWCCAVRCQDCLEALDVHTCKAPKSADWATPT
Put plainly: Wnt Inhibition Assay. The following applies: pH 7.4; 4 °C. An excerpt: Inhibition assay of Wnt response treated with exogenously supplied of Wnt protein ('exogenous Wnt' test)
For `Cc1cccc2nc(Cn3c(=O)n(C[C@H]4CC[C@H](C(=O)NCc5ccccc5)CC4)c(=O)c4ccccc43)cc(=O)n12` [CID15995771], the IC50 worked out at 40 nM.

Turning to `Cc1ccnc2c(NC(=O)c3ccc(-n4c(O)c5c(c4O)[C@H]4C=C[C@@H]5C4)cc3)cccc12` [CID25093486], the IC50 is 27 nM.

Take `O=C(Nc1cccc2cccnc12)c1ccc(-n2c(O)c3c(c2O)[C@H]2C=C[C@@H]3C2)cc1`: the IC50 is 58 nM.

The compound `N#Cc1ccccc1Cn1c(=O)n(C[C@H]2CC[C@H](C(=O)NCc3ccccc3)CC2)c(=O)c2ccccc21` [CID15993586] returned an IC50 of 25 nM.
